From patent publication US20260248799A1, “COMBINATIONS OF RETINALDEHYDE DEHYDROGENASE 1 (RALDH1) INHIBITORS AND IMMUNOSTIMULATORS AND METHODS USING SAME” (The Trustees of the University of Pennsylvania, priority 2023, published 2026) come the findings set out here.

The structures appear in SMILES notation.

One experiment deals with primary human monocytes. In words: Human monocyte DC differentiation with SNU398 cells or conditioned media. Type of experiment: cell-based. An excerpt: FIGS. 22A-22E: RALDH1 inhibition blocks RA-mediated effects of HCC on monocyte differentiation. FIGS. 22A-22B: Circulating primary human monocytes from donors (FIG. 22A) or murine monocytes from bone marrow (FIG. 22B) were cocultured with SNU398 (Human HCC) cells or treated with SNU398-conditioned media (CM) in a DC differentiation system (GM-CSF and IL-4). Two-color histograms show the frequencies of DCs (CD11c^+CD1a^+ for human and CD11c^+MHCII^+ for mouse). The presence of SNU398 or its CM suppressed DC differentiation, which is reversed when SNU398 cells are treated with C86. Three or more independent experiments were performed with at least three replicates per experimental group. Unpaired t test, two-tailed. FIG. 22C: Huh7 (human HCC) cells were subcutaneously injected into flanks of NU/J mice. […] The frequencies of the host (murine) DCs (CD45^+F4/80^−CD11C^+MHCII-high) and macrophages (CD45^+F4/80^+) are quantified in a bar graph. […] Shown are the representative FCM plot (histogram) and DC quantification (bar graph). […]
Mouse monocytes were isolated from bone marrow as described herein and then cultured in RPMI 1640 (ThermoFisher Scientific, Cat #11875085) with 10% fetal bovine serum (GeminiBio, Cat #100-500). […] Cellular identity and function of differentiated monocytes was assessed by flow cytometry and quantitative PCR (qPCR).

For another experiment, the target named is T1, Cyclooxygenase COX-2 (Homo sapiens, UniProt P35354).
T1 construct: Eurofins Cerep Panlabs (contract panel)
T1 sequence (P35354 18-604): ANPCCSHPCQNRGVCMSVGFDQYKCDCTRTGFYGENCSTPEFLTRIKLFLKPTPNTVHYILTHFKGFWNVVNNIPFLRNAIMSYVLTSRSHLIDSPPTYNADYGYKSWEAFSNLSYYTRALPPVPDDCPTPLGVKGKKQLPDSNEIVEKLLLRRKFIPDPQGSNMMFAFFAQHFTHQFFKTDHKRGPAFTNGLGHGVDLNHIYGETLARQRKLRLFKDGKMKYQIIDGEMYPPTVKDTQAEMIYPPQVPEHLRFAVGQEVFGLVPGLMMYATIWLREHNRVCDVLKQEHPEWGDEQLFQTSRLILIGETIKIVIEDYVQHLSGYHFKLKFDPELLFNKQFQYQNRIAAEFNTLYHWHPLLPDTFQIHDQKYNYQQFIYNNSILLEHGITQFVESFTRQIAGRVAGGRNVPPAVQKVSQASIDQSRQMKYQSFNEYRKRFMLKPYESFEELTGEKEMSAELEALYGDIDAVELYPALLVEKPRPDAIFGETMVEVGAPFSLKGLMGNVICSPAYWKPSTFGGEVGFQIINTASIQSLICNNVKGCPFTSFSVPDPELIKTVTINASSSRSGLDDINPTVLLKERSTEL
In words: Safetyscreen: COX-2. It is filed as biochemical. The settings on record: read-out: % Inh. Cyclooxygenase COX-2.

A further experiment deals with T2, Adrenergic α1A (Rattus norvegicus, UniProt P43140).
T2 construct: Eurofins Cerep Panlabs (contract panel)
T2 sequence (P43140 whole entry): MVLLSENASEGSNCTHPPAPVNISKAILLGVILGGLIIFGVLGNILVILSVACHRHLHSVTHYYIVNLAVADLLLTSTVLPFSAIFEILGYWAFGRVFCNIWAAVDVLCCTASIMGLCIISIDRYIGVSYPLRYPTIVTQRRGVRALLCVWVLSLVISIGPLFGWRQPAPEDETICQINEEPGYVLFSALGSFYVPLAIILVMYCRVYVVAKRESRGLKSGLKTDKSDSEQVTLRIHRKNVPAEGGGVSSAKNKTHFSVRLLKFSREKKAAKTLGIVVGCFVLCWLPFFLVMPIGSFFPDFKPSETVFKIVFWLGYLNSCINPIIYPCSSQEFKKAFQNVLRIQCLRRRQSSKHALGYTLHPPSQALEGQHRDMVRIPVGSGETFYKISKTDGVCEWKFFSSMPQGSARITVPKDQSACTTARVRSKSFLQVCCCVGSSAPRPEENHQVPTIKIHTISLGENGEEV
In words: Safetyscreen: Adrenergic α1A. The settings on record: read-out: % Inh. Adrenergic α1A. It is filed as binding.

The target in a further experiment is T3, Melanocortin MC1 (Homo sapiens, UniProt Q01726).
T3 construct: purchased Eurofins Cereps Panlabs
T3 sequence (Q01726 whole entry): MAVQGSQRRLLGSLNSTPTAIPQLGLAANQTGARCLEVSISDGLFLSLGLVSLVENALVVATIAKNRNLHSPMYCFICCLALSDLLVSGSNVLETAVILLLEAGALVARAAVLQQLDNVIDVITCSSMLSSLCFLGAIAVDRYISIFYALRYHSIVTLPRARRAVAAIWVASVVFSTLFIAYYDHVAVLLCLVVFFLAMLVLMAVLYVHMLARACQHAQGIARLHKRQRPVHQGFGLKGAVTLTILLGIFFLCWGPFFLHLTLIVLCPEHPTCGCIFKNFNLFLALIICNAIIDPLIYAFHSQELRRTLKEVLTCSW
Kind of experiment: Safetyscreen: MC1. Type of experiment: binding. The following applies: read-out: % Inh. Melanocortin MC1.

Another experiment has as its system Nicotinic Acetylcholine. In words: Safetyscreen: Nicotinic Acetylcholine. Type of experiment: binding, human. The settings on record: 10 μM.
The next experiment deals with T4, Opiate μ(OP3, MOP) (Homo sapiens, UniProt P35372).
T4 construct: Eurofins Cereps Panlabs (contract panel)
T4 sequence (P35372 whole entry): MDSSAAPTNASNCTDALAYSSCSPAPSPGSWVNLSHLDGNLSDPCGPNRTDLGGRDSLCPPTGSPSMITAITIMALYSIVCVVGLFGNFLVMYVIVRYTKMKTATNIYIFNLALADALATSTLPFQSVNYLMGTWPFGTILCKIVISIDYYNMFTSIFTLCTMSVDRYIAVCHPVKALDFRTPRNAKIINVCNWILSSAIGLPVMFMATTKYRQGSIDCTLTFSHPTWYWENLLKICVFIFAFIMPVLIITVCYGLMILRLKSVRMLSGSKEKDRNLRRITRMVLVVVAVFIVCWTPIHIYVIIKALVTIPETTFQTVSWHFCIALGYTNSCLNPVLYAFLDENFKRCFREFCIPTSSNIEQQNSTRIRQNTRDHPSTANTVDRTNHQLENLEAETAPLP
In words: Safetyscreen: Opiate μ. The following applies: read-out: % Inh. Opiate μ(OP3, MOP). It is filed as binding.

Experiment [1] addresses T5, Platelet Activating Factor (PAF) (Homo sapiens, UniProt P25105).
T5 construct: Eurofins Cereps Panlabs (contract panel)
In words: Safetyscreen: PAF. It is filed as binding. The settings on record: read-out: % Inh. Platelet Activating Factor (PAF).

The target of the next experiment is T6, PPARγ (Homo sapiens, UniProt P37231).
T6 construct: Eurofins Cereps Panlabs (contract panel)
T6 sequence (P37231 whole entry): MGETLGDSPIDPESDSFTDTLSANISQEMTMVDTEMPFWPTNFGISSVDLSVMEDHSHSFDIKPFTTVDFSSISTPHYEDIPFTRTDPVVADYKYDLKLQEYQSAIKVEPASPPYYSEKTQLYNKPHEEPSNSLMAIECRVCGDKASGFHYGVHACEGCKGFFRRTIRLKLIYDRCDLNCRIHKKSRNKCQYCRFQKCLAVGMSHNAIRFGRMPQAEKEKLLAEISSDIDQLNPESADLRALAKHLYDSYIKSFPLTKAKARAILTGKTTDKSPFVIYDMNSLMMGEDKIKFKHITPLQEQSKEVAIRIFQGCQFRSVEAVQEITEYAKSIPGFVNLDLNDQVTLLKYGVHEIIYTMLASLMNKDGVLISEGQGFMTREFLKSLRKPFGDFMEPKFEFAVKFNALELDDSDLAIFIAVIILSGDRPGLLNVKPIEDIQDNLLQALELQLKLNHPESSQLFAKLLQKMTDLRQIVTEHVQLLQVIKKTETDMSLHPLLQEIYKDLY
In words: Safetyscreen: PPARγ. It is filed as binding.

Experiment [2] deals with T7, Transporter, Norepinephrine (NET) (Homo sapiens, UniProt P23975).
T7 construct: purchased Eurofins Cereps Panlabs
T7 sequence (P23975 whole entry): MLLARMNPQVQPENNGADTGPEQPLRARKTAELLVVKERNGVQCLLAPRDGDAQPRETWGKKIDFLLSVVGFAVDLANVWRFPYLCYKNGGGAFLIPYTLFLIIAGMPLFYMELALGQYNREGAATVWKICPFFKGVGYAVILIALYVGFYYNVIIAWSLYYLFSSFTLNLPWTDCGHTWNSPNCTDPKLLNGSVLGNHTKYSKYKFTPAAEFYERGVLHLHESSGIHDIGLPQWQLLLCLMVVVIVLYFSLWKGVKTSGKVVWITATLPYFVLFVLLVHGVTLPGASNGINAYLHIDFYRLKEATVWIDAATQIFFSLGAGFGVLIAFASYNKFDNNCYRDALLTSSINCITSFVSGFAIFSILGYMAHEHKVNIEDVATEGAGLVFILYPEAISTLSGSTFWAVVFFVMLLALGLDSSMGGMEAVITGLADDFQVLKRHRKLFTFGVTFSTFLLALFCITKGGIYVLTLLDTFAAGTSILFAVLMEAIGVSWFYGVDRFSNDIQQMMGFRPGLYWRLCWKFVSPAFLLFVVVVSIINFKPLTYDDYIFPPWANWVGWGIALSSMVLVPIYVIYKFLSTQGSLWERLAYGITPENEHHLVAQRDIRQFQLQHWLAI
Kind of experiment: Safetyscreen: NET. It is filed as binding. The settings on record: read-out: % Inh. Transporter, Norepinephrine (NET).

T5 sequence (P25105 whole entry): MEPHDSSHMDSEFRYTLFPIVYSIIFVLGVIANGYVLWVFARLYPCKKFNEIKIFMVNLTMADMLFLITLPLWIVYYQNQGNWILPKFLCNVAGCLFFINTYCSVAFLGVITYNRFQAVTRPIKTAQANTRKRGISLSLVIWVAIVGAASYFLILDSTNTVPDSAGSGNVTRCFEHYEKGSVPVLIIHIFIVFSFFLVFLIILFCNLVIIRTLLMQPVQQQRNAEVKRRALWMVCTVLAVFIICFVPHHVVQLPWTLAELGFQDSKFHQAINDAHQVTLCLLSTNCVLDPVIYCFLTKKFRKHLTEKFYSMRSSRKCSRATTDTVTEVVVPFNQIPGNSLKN

In the case of `CS(=O)(=O)N1CCN(C(=O)c2cnc3ccc(F)cc3c2N2CCC(C#N)(c3ccccc3)CC2)CC1` [Compound C-86, 1-(6-fluoro-3-(4-(methylsulfonyl)piperazine-1-carbonyl)quinolin-4-yl)-4-phenylpiperidine-4-carbonitrile], in the experiment on primary human monocytes (direct treatment of monocytes in vitro), the “potential of monocytes to differentiate into DCs” value is “did not alter”. For the same compound, the “suppression of DC differentiation by HCC cells or CM” value in the experiment on primary human monocytes (human monocytes, HCC cells pre-treated) was “reversed”. In addition, the inhibition at 10 µM is 0% at Cyclooxygenase COX-2; 6% on Adrenergic α1A; 8% at Melanocortin MC1; 19% on Opiate μ(OP3, MOP); 32% in [1]; 12% at PPARγ. Further, the inhibition at 10 µM in experiment [2] came out at 35%. The “% Inh. Nicotinic Acetylcholine” value in the experiment on Nicotinic Acetylcholine was 5%.
